Among the data in ChEMBL document CHEMBL5500368, “Discovery of novel diaryl substituted isoquinolin-1(2H)-one derivatives as hypoxia-inducible factor-1 signaling inhibitors for the treatment of rheumatoid arthritis” (Eur J Med Chem, 2024) are IC50 and CC50 values, retold here.

Data set [1] in a line: Inhibition of HIF-1 (unknown origin) expressed in MH7A cells cotransfected with HRE and renilla luciferase assessed as reduction in luminescence signal preincubated for 1 hr under normoxic condition followed by 24 hrs incubation under hypoxic condition by dual luciferase reporter assay. The settings on record: Homo sapiens.
Data set [2] is described as follows: Cytotoxicity against human MH7A cells.

In general, IC50 refers to the concentration that inhibits the measured activity by half. The CC50 is the concentration at which the toxic effect on the cells reaches its halfway point. Consider `COc1ccc(-c2ccc3c(=O)n(CCc4ccccc4)ccc3c2)cc1`, for which the IC50 in data set [1] was found to be 2.18 µM. Further, the CC50 in data set [2] was > 50 µM.
Regarding `COc1ccc(-c2ccc3c(=O)n(Cc4ccccc4F)ccc3c2)cc1`, the IC50 in data set [1] worked out at 3.54 µM. Besides, the CC50 in data set [2] is > 50 µM.
For the molecule `O=c1c2ccc(-c3ccc(F)cc3)cc2ccn1CCc1ccccc1`, the IC50 in data set [1] was found to be 6.21 µM. For the same molecule, the CC50 in data set [2] is > 50 µM.
The matching figures for `O=c1c2ccc(-c3ccccc3O)cc2ccn1CCc1ccccc1`: 0.91 µM and > 50 µM.
As to `COc1ccccc1-c1ccc(C(=O)NCCc2ccccc2F)nc1`, the IC50 in data set [1] is 4.57 µM. Further, in data set [2], the CC50 was > 50 µM.
On to `COc1ccccc1-c1ccc2c(=O)n(Cc3ccccc3F)ccc2c1`, for which the IC50 in data set [1] was 6.73 µM. In addition, the CC50 in data set [2] was > 50 µM.
Take `O=c1c2ccc(-c3cccc(O)c3)cc2ccn1CCc1ccccc1`: the IC50 in data set [1] turned out to be 7.39 µM. For the same molecule, the CC50 in data set [2] was > 50 µM.
The matching figures for `O=c1c2ccc(-c3ccoc3)cc2ccn1Cc1ccccc1`: 5.92 µM and > 50 µM.
Take `O=c1c2ccc(-c3ccc(O)cc3)cc2ccn1CCc1ccccc1`: in data set [1], the IC50 was 0.82 µM. In data set [2], the CC50 is > 50 µM.
In the same order, the values of `O=c1c2ccc(-c3ccoc3)cc2ccn1Cc1ccccc1F` are 1.46 µM and > 50 µM.
The matching figures for `COc1ccccc1-c1ccc2c(=O)n(CCc3ccccc3)ccc2c1`: 3.31 µM and > 50 µM.
